Assay results as given in patent US6136552A, “High-affinity salicylic acid-binding protein and methods of use” (Rutgers, The State University of New Jersey, priority 1997, dated 2000).
Like-named read-outs stand apart in the source and are kept apart here.

What was measured:
[1] = molecular target: T1, SABP2 (Nicotiana tabacum, UniProt Q6RYA0); test: [3H]SA competition assay with unlabeled SA and SA analogues; type: binding, tobacco
T1 construct: Soluble proteins were extracted from the powdered leaves; from tissue; host or cells: tobacco leaf (cv. Xanthi nc), 50-75% ammonium sulfate fraction
T1 sequence (Q6RYA0 1-260): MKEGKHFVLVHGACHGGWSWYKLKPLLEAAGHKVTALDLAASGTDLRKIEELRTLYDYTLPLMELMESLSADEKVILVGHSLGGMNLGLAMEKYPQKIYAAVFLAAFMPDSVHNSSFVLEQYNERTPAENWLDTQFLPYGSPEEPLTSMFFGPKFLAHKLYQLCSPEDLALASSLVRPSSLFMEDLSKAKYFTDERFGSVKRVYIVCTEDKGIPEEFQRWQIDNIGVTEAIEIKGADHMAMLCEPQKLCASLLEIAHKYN
Description: (§1) [3H]SA binding and competition assays. […] Spin columns were prepared by packing Sephadex G25 gel (exclusion limit 5 kDa; Pharmacia), which was pre-equilibrated in buffer A, in a 1-mL disposable syringe and centrifuging at 1,000 g for 4 minutes at 4° C. This process was repeated until the bed volume of the spin column reached 1 mL. One additional spin with 125 μL buffer A was performed under the same centrifugation conditions. The binding mixture (125 μL) was loaded onto the spin column and immediately centrifuged. […] When no protein extract was included in the binding mixture, the background radioactivity level was 33±3 dpm/100 μL. For the boiling treatment, the extract was boiled for 5 minutes and denatured protein aggregates were removed by centrifugation at 12,000 g for 1 minute.

[2] = system: PR gene expression and enhanced disease resistance; design: key to Biological activity: +, active; -, inactive; conditions: cited from earlier work; for Biological activity: based on FIG. 7 and literature
[3] = system: PR-1 gene expression; test: Induction of PR-1 gene expression in leaf discs (northern blot); type: cell-based, tobacco; conditions: Nicotiana tabacum, foliar, 24 hours after treatment, read-out: concentration giving 15-fold induction of PR-1 gene expression
Description: As a control, rRNA present in each lane is also shown. FIG. 7B is a graph showing quantification of the fold-induction of the PR-1 mRNA levels after SA (.cndot.) and BTH (.smallcircle.) treatment. The levels of PR-1 mRNA were normalized to the amounts of rRNA. The rRNA-normalized levels of PR-1 mRNA obtained after infiltration of leaf discs with SA or BTH were divided by the rRNA-normalized level of PR-1 mRNA obtained after infiltration with water only to determine the fold induction. The data presented are from a single experiment; two additional experiments were done. The maximum-fold induction of the PR-1 genes and the concentrations of SA and BTH required to reach approximately 50% of this value varied somewhat among the three experiments, depending on the age of the plant. In the three experiments, the concentrations of BTH needed to reach approximately 50% induction were 30- to 40-fold lower than those for SA.

[4] = molecular target: T2, tobacco catalase (Nicotiana tabacum, UniProt P49319); test: Inhibition of catalase activity; type: biochemical; conditions: unpublished data
T2 construct: tobacco catalase activity in suspension cells and in crude leaf extracts; host or cells: tobacco suspension cells, crude leaf extracts, purified enzyme
T2 sequence (P49319 1-492): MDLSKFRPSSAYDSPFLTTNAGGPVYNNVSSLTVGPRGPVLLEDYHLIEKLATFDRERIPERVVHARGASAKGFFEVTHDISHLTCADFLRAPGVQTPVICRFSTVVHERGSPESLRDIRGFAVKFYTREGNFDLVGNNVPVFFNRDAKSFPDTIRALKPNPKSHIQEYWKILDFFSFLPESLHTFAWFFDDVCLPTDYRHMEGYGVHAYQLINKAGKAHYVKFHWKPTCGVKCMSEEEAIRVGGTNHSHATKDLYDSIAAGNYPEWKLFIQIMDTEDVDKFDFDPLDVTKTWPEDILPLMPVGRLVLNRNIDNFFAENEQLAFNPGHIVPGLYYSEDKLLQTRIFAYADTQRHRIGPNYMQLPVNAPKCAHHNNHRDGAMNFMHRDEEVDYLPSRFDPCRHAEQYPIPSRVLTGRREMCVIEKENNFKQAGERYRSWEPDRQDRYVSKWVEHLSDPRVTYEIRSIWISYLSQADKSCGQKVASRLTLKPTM

[5] = molecular target: T2, tobacco catalase; conditions: cited from earlier work
[6] = system: tobacco catalase; conditions: in vivo; cited from earlier work
[7] = molecular target: T1, SABP2; test: [3H]SA binding assay (kinetics, reversibility, saturation, Scatchard plot); design: species or system tobacco; conditions: for time until binding is complete / approaches equilibrium: 0-4° C.
Description: as §1

[8] = system: APX; conditions: cited from earlier work
[9] = molecular target: T3, catalase (Nicotiana tabacum, UniProt P49319); conditions: cited from earlier work
T3 construct: has been identified in tobacco leaf extracts; host or cells: tobacco leaf extracts
T3 sequence (P49319 1-492): T2 sequence (P49319 1-492)

[10] = 50-75% fraction, 0.1 μM [3H]SA, on ice 2 hours, estimated from FIG. 6, read-out: IC50 of competition for [3H]SA binding

SMILES	IC50 [1, 10] [µM]	Biological activity [2]	Biologically active / inactive (FIG. 6 legend) ([2]; in vivo)	IC50 [1] [µM]	other results
O=C(O)c1cc(O)ccc1O [2,5-dihydroxybenzoic acid]	20	-	biologically inactive		
O=C(O)c1c(O)cccc1O [2,6-dihydroxybenzoic acid]	2	+	Biologically active		
O=C(O)c1cccc(O)c1 [3-hydroxybenzoic acid]	105	-	biologically inactive		
O=C(O)c1ccc(O)cc1 [4-hydroxybenzoic acid]	> 1000	-	biologically inactive		
O=C(O)c1cc(Cl)ccc1O [5-chloroSA, 5-chlorosalicylic acid]	0.3	+	Biologically active		
CSC(=O)c1cccc2nnsc12 [BTH, benzo(1,2,3)thiadiazole-7-carbothioic acid S-methyl ester]		+	Biologically active	0.1	EC (15-fold) [3]: ~3.3 µM; catalase inhibition compared with SA [4]: more effective inhibitor of catalase than SA
O=C(O)c1cc(Cl)nc(Cl)c1 [INA, 2,6-dichloroisonicotinic acid]		+	Biologically active	70	inhibition of catalase activity in crude extracts ([5]; crude extracts): less effective at inhibiting catalase activity in crude extracts; inhibition of purified tobacco catalase ([5]; purified enzyme): fails to inhibit purified tobacco catalase; inhibition of tobacco catalase in vivo [6]: effectively blocks tobacco catalase in vivo
O=C(O)c1ccccc1O[C@@H]1O[C@H](CO)[C@@H](O)[C@H](O)[C@H]1O [SA β-glucoside]					induction of disease resistance ([2]; in vivo): not active
O=C(O)c1ccccc1O [SA, salicylic acid]		+	Biologically active	1.5	SA level required for effective inhibition of catalase activity [5]: 50 to 300 µM; time until binding is complete / approaches equilibrium [7]: 15 to 20 min; inhibition at 1000 µM ([7]; 50-75% fraction, 1 mM SA, 0.1 μM [3H]SA, read-out: reduction of binding activity in the presence of excess unlabeled SA): 85%; remaining activity at 1000 µM ([7]; 100% = binding after 160 minutes of incubation, read-out: [3H]SA binding remaining after addition of 1 mM SA): < 10%; Kd ([7]; Scatchard plot, 50-75% fraction): 0.09 µM; SA level required for effective inhibition of APX activity [8]: 50 to 300 µM; Kd ([9]; [14C]SA, tobacco leaf extracts, read-out: Kd of SA binding to catalase): 14 µM; time until binding to catalase approaches equilibrium [9]: 90 to 120 min
O=C(O)c1ccccc1O [[^3 H]SA]					time until binding is complete / approaches equilibrium [7]: approximately 20 minutes; half association time ([7]; 50-75% fraction): 5 min
